Consider 15 compounds from patent US20170275650A1, “ENDOSOMAL ESCAPE DOMAINS FOR […] OF MACR[…] CELLS” (priority 2014, published 2017).

Data set [1] relates to GFPβ1-10 expressing H1299c#G3 cells. Description: split GFP fluorescence complementation transduction assay (FACS). The format is cell-based, human. The conditions noted are these: for GFP fluorescence, head-to-head comparison of PTD/CPP delivery domains: 30 μM GFPβ11-(S-S)-PTD/CPP peptide, FACS (FIG. 3B, C); for escape efficiency compared to the six PEG unit (P6) spacer: GFPβ11-(S-S)-TAT-PEG(n)-GWWG series (FIG. 4); for GFP fluorescence / transduction compared to parental GFPβ11-(S-S)-TAT: dose-dependent comparison, up to 60 μM, FACS (FIG. 4, 5). As for the experimental part:
Peptide transduction. All transduction experiments were performed in 48-well plates. An optimized protocol was established. First, 15,000 or 20,000 cells were plated in each well. Next day, the indicated peptides were pipetted into eppendorf tubes. Transduction buffer (60% OptiMEM and 40% PBS) was added to peptide (100 μl total volume), directly mixed by pipetting up and down five times and then immediately transferred to cells. All pipetting steps were done in a laminar flow cell culture hood and standardized to 15 min for each plate before transferring the plate of cells to a 37° C. CO2 incubator for 1.5 h before addition of 500 μl DMEM supplemented with 10% FBS and another incubation round for 3.5 h in the 37° C. CO2 incubator (alternatively cells were incubated 2 h with peptides and another 4 h with DMEM, 10% FBS (FIG. 8b, c, d). For the transduction time-course, cells were incubated with peptides in transduction buffer until indicated time-points. All cells were trypzinized and collected in 250 μl OptiMEM without phenol red and analyzed by FACS (GFP, FSC/SSC). 4000 viable cells were analyzed per sample. Data is presented as fold change in fluorescence compared to non-treated cells.
To address these problems, the disclosure provides a self-assembling, bimolecular or split GFP fluorescence complementation system that was originally designed to tag and monitor proteins. GFP is composed of 11 β-strands that form a barrel structure allowing for peptidyl backbone cyclization and formation of a fluorescent chromophore. […] Importantly, co-incubation of GFPβ1-10 with the GFPβ11 peptide in trans efficiently reconstitutes GFP fluorescent chromophore bond and GFP fluorescence (FIG. 1a). To study PTD-mediated delivery, cell lines were generated that constitutively expressed the non-fluorescent GFPβ1-10 fragment and treated them in trans with a GFPβ11-PTD/CPP peptide to restore GFP fluorescence.
Cell clones of various human cell lines constitutively expressing the non-fluorescent large GFPβ1-10 fragment, including H1299 non-small cell lung carcinoma, HaCaT immortalized keratinocytes, and MDA-MB-231 and MCF7 breast carcinomas, and assayed for reconstituted intracellular GFP fluorescence after treatment with transducible GFPβ11-PTD/CPP peptides by FACS (FIG. 1a). Starting with human H1299 cells, known to be a good model for PTD/CPP-mediated uptake, two GFPβ1-10 expressing clones were generated (c#G3 and c#G4) (FIG. 8a). GFPβ1-10 expressing H1299c#G3 cells were treated for 1.5 h with increasing amounts of transducible GFPβ11-TAT peptide (0-60 μM), followed by an additional 3.5 h in DMEM supplemented with 10% FBS. At 5 h post-addition of GFPβ11-TAT peptide, cells were trypsinized and live cell assayed by FACS.

For data set [2] the test system is unchanged. The format is cell-based, human. The note with it: FACS FSC/SSC and viable cell number relative to untreated control cells. From the text: Cell morphology and cell viability.

Entries after “also recorded” stand apart in the source; their conditions may differ. Where a SMILES comes first, the peptide text is derived from it. Where no end group is shown, it is not given here.

Turning to “RDHMVLHEYVNAAGIT-GGSGGC-(S-S)-CGG-RRRRRRRR (chain 1 RDHMVLHEYVNAAGITGGSGGC; chain 2 CGGRRRRRRRR; also: disulfide to a chain's N/C-terminus) [GFPβ11-(S-S)-8xArg]”, in data set [1], the “GFP fluorescence, head-to-head comparison of PTD/CPP delivery domains” value (shortened to “GFP fluorescence … of PTD/CPP delivery domains”) is given as “significantly better uptake”.
For the compound `CC[C@H](C)[C@H](NC(=O)CNC(=O)[C@H](C)NC(=O)[C@H](C)NC(=O)[C@H](CC(N)=O)NC(=O)[C@@H](NC(=O)[C@H](Cc1ccc(O)cc1)NC(=O)[C@H](CCC(=O)O)NC(=O)[C@H](Cc1c[nH]cn1)NC(=O)[C@H](CC(C)C)NC(=O)[C@@H](NC(=O)[C@H](CCSC)NC(=O)[C@H](Cc1c[nH]cn1)NC(=O)[C@H](CC(=O)O)NC(=O)[C@@H](N)CCCNC(=N)N)C(C)C)C(C)C)C(=O)N[C@H](C(=O)NCC(=O)NCC(=O)N[C@@H](CO)C(=O)NCC(=O)NCC(=O)N[C@@H](CSSC[C@H](N)C(=O)NCC(=O)NCC(=O)N[C@@H](C)C(=O)NCC(=O)N[C@@H](Cc1ccc(O)cc1)C(=O)N[C@@H](CC(C)C)C(=O)N[C@@H](CC(C)C)C(=O)NCC(=O)N[C@@H](CCCCN)C(=O)N[C@H](C(=O)N[C@@H](CC(N)=O)C(=O)N[C@@H](CC(C)C)C(=O)N[C@@H](CCCCN)C(=O)N[C@@H](C)C(=O)N[C@@H](CC(C)C)C(=O)N[C@@H](C)C(=O)N[C@@H](C)C(=O)N[C@@H](CC(C)C)C(=O)N[C@@H](C)C(=O)N[C@@H](CCCCN)C(=O)N[C@@H](CCCCN)C(=O)N[C@H](C(=O)N[C@@H](CC(C)C)C(N)=O)[C@@H](C)CC)[C@@H](C)CC)C(N)=O)[C@@H](C)O` [GFPβ11-(S-S)-TP10], in data set [2], the “cytotoxicity / morphological changes” value is recorded as “very high level of cytotoxicity; also recorded: high toxicity”.
With “RDHMVLHEYVNAAGIT-GGSGGC-(S-S)-CGG-RKKRRQRRR-(PEG)12-GWWG (disulfide bond, (PEG)12-GWWG) [GFPβ11-(S-S)-TAT-P12-WW]”, the “escape efficiency compared to the six PEG unit (P6) spacer” value in data set [1] is on record as “lower escape efficiency”.
In the case of “RDHMVLHEYVNAAGIT-GGSGGC-(5-5)-CGG-RKKRRQRRR-(PEG)6-GWG [GFPβ11-(S-S)-TAT-P6-GWG]”, the “GFP fluorescence / transduction compared to parental GFPβ11-(S-S)-TAT” value in data set [1] is listed as “no net effect”.
`CC[C@H](C)[C@H](NC(=O)CNC(=O)[C@H](C)NC(=O)[C@H](C)NC(=O)[C@H](CC(N)=O)NC(=O)[C@@H](NC(=O)[C@H](Cc1ccc(O)cc1)NC(=O)[C@H](CCC(=O)O)NC(=O)[C@H](Cc1c[nH]cn1)NC(=O)[C@H](CC(C)C)NC(=O)[C@@H](NC(=O)[C@H](CCSC)NC(=O)[C@H](Cc1c[nH]cn1)NC(=O)[C@H](CC(=O)O)NC(=O)[C@@H](N)CCCNC(=N)N)C(C)C)C(C)C)C(=O)N[C@H](C(=O)NCC(=O)NCC(=O)N[C@@H](CO)C(=O)NCC(=O)NCC(=O)N[C@@H](CCCNC(=N)N)C(=O)N[C@@H](CCCCN)C(=O)N[C@@H](CCCCN)C(=O)N[C@@H](CCCNC(=N)N)C(=O)N[C@@H](CCCNC(=N)N)C(=O)N[C@@H](CCC(N)=O)C(=O)N[C@@H](CCCNC(=N)N)C(=O)N[C@@H](CCCNC(=N)N)C(=O)N[C@@H](CCCNC(=N)N)C(N)=O)[C@@H](C)O` [GFPβ11-TAT] (H-RDHMVLHEYVNAAGITGGSGGRKKRRQRRR-NH2): the “cytotoxicity / morphological changes” value in data set [2] is “did not display any cytotoxicity or morphological changes”.
With “RDHMVLHEYVNAAGIT-GGSGGC-(S-S)-CGG-RKKRRQRRR-(PEG)6-GG [GFPβ11-(S-S)-TAT-P6-GG]”, in data set [1], the “GFP fluorescence / transduction compared to parental GFPβ11-(S-S)-TAT” value is reported as “lower uptake than GFPβ11-(S-S)-TAT peptide”.
For the compound “RDHMVLHEYVNAAGIT-GGSGGC-(S-S)-CGG-KKKKKKKK (chain 1 RDHMVLHEYVNAAGITGGSGGC; chain 2 CGGKKKKKKKK; also: disulfide to a chain's N/C-terminus) [GFPβ11-(S-S)-8xLys]”, the “GFP fluorescence … of PTD/CPP delivery domains” value in data set [1] is reported as “failed to induce GFP fluorescence to any high degree”. Besides, the “GFP fluorescence after addition of Chloroquine” value in data set [1] (30 μM peptide plus 100 μM Chloroquine (FIG. 3C)) was “failed to induce GFP fluorescence to any high degree”.
Turning to `CC[C@H](C)[C@H](NC(=O)CNC(=O)[C@H](C)NC(=O)[C@H](C)NC(=O)[C@H](CC(N)=O)NC(=O)[C@@H](NC(=O)[C@H](Cc1ccc(O)cc1)NC(=O)[C@H](CCC(=O)O)NC(=O)[C@H](Cc1c[nH]cn1)NC(=O)[C@H](CC(C)C)NC(=O)[C@@H](NC(=O)[C@H](CCSC)NC(=O)[C@H](Cc1c[nH]cn1)NC(=O)[C@H](CC(=O)O)NC(=O)[C@@H](N)CCCNC(=N)N)C(C)C)C(C)C)C(=O)N[C@H](C(=O)NCC(=O)NCC(=O)N[C@@H](CO)C(=O)NCC(=O)NCC(=O)N[C@@H](CSSC[C@H](N)C(=O)NCC(=O)NCC(=O)N[C@@H](CCCNC(=N)N)C(=O)N[C@@H](CCCCN)C(=O)N[C@@H](CCCCN)C(=O)N[C@@H](CCCNC(=N)N)C(=O)N[C@@H](CCCNC(=N)N)C(=O)N[C@@H](CCC(N)=O)C(=O)N[C@@H](CCCNC(=N)N)C(=O)N[C@@H](CCCNC(=N)N)C(=O)N[C@@H](CCCNC(=N)N)C(N)=O)C(N)=O)[C@@H](C)O` [GFPβ11-(S-S)-TAT], the “cytotoxicity / morphological changes” value in data set [2] is recorded as “absence of cytotoxicity”.
Turning to “RDHMVLHEYVNAAGIT-GGSGGC-(S-S)-CGG-RKKRRQRRR-(PEG)6-GWWG [GFPβ11-(S-S)-TAT-P6-GWWG]”, in data set [1], the “GFP fluorescence / transduction compared to parental GFPβ11-(S-S)-TAT” value is “retained enhanced cytoplasmic delivery; also recorded: four-fold increase”.
Regarding “RDHMVLHEYVNAAGIT-GGSGGC-(S-S)-CGG-RKKRRQRRR-(PEG)6-GWGGWG [GFPβ11-(S-S)-TAT-P6-WGGW]”, in data set [1] (PEG6-spaced EED peptides (FIG. 5A-D)), the “enhancement compared to the -GWWG motif” value was “decreased the enhancement approximately two-fold”.
Take “RDHMVLHEYVNAAGIT-GGSGGC-(S-S)-CGG-RKKRRQRRR-(PEG)6-GFWG [GFPβ11-(S-S)-TAT-P6-GFWG]”: the “GFP fluorescence / transduction compared to parental GFPβ11-(S-S)-TAT” value in data set [1] is “two-fold increase”.
“RDHMVLHEYVNAAGIT-GGSGGC-(S-S)-CGG-LLIILRRRIRKQAHAHSK [GFPβ11-(S-S)-pVEC]”: in data set [1], the “GFP fluorescence … of PTD/CPP delivery domains” value is “only slightly above background”.
As for “RDHMVLHEYVNAAGIT-GGSGGC-(S-S)-CGG-RKKRRQRRR-(PEG)18-GWWG (disulfide bond, (PEG)18-GWWG) [GFPβ11-(S-S)-TAT-P18-WW]”, in data set [1], the “escape efficiency compared to the six PEG unit (P6) spacer” value was “lower escape efficiency” and the “GFP fluorescence / transduction compared to parental GFPβ11-(S-S)-TAT” value is on record as “reduced GFPβ11 delivery below that of the control GFPβ11-(S-S)-TAT”.
As to “RDHMVLHEYVNAAGIT-GGSGGC-(S-S)-CGG-GALFLGFLGAAGSTMGAWSQPKKKRKV (chain 1 RDHMVLHEYVNAAGITGGSGGC; chain 2 CGGGALFLGFLGAAGSTMGAWSQPKKKRKV; also: disulfide to a chain's N/C-terminus) [GFPβ11-(S-S)-MPG]”, in data set [1], the “GFP fluorescence … of PTD/CPP delivery domains” value was “only slightly above background”.
In the case of “RDHMVLHEYVNAAGIT-GGSGGC-(S-S)-CGG-RKKRRQRRR-(PEG)6-GFFG (disulfide bond, (PEG)6-GFFG) [GFPβ11-(S-S)-TAT-P6-GFFG]”, the “GFP fluorescence / transduction compared to parental GFPβ11-(S-S)-TAT” value in data set [1] is on record as “no net effect”.
